The source of these data is patent US20070015828A1 (Wyeth, priority 2005, published 2007).

Type in all cases: physicochemical
Data set [1] can be described thus: Solution Stability in aqueous solutions. To be noted: room temperature, all aqueous solutions (pH 1.6-10.5).
Data set [2] can be described thus: pH-Solubility. To be noted: free base.
Data set [3] can be described thus: Hygroscopicity.
The nature of data set [4]: Octanol/Water Partitioning Coefficient. The settings on record: @ pH 6.

Structures are written as SMILES.

On to `COC1CCC(O)(C(CN(C)C)c2ccc(O)cc2)CC1` (stereo not drawn) [4-[2-dimethylamino-1-(cis-1-hydroxy-4-methoxy-cyclohexyl)-ethyl]-phenol], for which the “Solution Stability, time stable” value in data set [1] is on record as “The compound was stable for at least 72 hours”. Further, the pH-Solubility entry is listed as “Final pH 1.60 >10.71 mg/ml” in data set [2] (Final pH 1.60); “Final pH 7.62 >10.00 mg/ml” in data set [2] (Final pH 7.62); “Final pH 8.21 >10.00 mg/ml” in data set [2] (Final pH 8.21); “Final pH 9.00 7.65 mg/ml” in data set [2] (Final pH 9.00); “Final pH 10.5 7.65 mg/ml” in data set [2] (Final pH 10.5). In addition, the Hygroscopicity result in data set [3] is given as “Non-hygroscopic”. In addition, the “Hygroscopicity, weight gain” value in data set [3] (@ 60% RH) is given as 0.44%; in data set [3] (@ 90% RH, weight gain was lost when returned to 10% RH or 0% RH), 60% RH, 1.2% weight gain @ 90% RH,. In addition, in data set [4], the “Octanol/Water Partitioning Coefficient Coct/Caq” value is “Coct/Caq @ pH 6 = 6.857”.
Take `CN(C)CC(c1ccc(O)cc1)[C@]1(O)CC[C@@H](O)CC1.O=C(O)CCC(=O)O` (stereo partly drawn) [Succinate salt, 1-[2-dimethylamino-1-(4-phenol)ethyl]-cis-1,4-cyclohexandiol succinate]: the Hygroscopicity result in data set [3] is reported as “hygroscopic”.
